{"source": "patent US8476463B2", "about": "(BASF SE, priority 2008, dated 2013)", "experiment": "Temperature-dependent solubility (saturation concentration) of fumaric acid in di-n-butyl phthalate absorbent", "assay_type": "physicochemical", "from_the_text": "The analysis can be effected, for example, by means of calibrated gas chromatography. For calibration, preference is given to using an internal standard, for example diethylene glycol dimethyl ether. Before the gas chromatography analysis, the sample is generally homogenized, i.e. taken up in a solvent. One example of a solvent entirely suitable for this purpose is N,N-dimethylformamide. […] Particularly suitable separating columns are capillary columns with 100% dimethylpolysiloxane (e.g. DB-1 from Agilent) or (14% cyanopropylphenyl)methylpolysiloxane (e.g. DB-1701 from Agilent), preferably each of length 60 m, internal diameter 0.32 mm and film thickness 1 μm.\nThe syringe attachment filter used is a membrane filter of pore width 0.2 micrometer. […] Its concentration is determined analogously to the analysis method described in the determination of c(FA, desorption column outlet). […] When establishing the new, higher temperature, the temperature of the suspension must not overshoot the desired temperature by more than 3° C. When the desired temperature has been established, the mixture is then stirred at constant temperature at least for a duration of 4 hours. • (6) After this continued stirring time, another sample is taken, as described in point (4). In each sampling, generally a new syringe attachment filter is used.\nExamples of secondary components caused by the industrial process include water, maleic anhydride, maleic acid, acrylic acid, methacrylic acid, acetic acid, propionic acid, phthalic anhydride and phthalic acid. […] The continuous line corresponds to the fitted curve."}
{"smiles": "O=C(O)/C=C/C(=O)O", "note": "[fumaric acid]", "values": [{"measurement": "saturation concentration of fumaric acid in the solution", "setting": "mixture of dibutyl phthalate and fumaric acid, 50° C.", "value": 250, "unit": "ppm by weight"}, {"measurement": "saturation concentration of fumaric acid in the solution", "setting": "solution from industrially operated maleic anhydride plant (dibutyl phthalate >98.5% by weight), 30° C.", "value": 250, "unit": "ppm by weight"}, {"measurement": "saturation concentration of fumaric acid in the solution", "setting": "solution from industrially operated maleic anhydride plant (dibutyl phthalate >98.5% by weight), 50° C.", "value": 400, "unit": "ppm by weight"}]}
